One data set deals with male CD1 mice. Description: Predictive sedation-hypnosis test in mice (motor activity, crossings). Type of data set: in vivo. The conditions noted are these: single equimolecular intraperitoneal dose, crossings over 30 min after dosing (first 5 min discarded) versus control animals. The protocol: In Vivo Determination of Predictive Sedative-Hypnotic Action.
The in vivo effects of these compounds were assessed by a predictive sedation-hypnosis test in mice (D. J. Sanger et al., Eur. J. Pharmacol., 313, 35-42, 1996; and G. Griebel et al., Psychopharmacology, 146, 205-213, 1999).
Groups of 5-8 male CD1 mice, weighing 22-26 g at the time of test, were used. The test compounds were administered in single equimolecular intraperitoneal doses, suspended in 0.25% agar with one drop of Tween in a volume of 10 ml/kg. Control animals received the vehicle alone. Using an Actisystem DAS16 (Panlab, S. L., Spain) the crossings (number of counts) were recorded for each mouse at 5-min intervals during a period of 30 minutes after dosing. The inhibition percentage of crossings of treated animals versus control animals (the first 5 min were discarded) was calculated.

For another data set, the target named is T1, α1-GABAA receptor (Rattus norvegicus, UniProt P62813).
T1 construct: the cerebellum (tissue that mostly contains α1-GABAA receptor); from tissue; host or cells: rat cerebellum membranes
Description: Ligand-binding assay, radiolabeled flumazenil competition, cerebellum membranes. The method, then:
(§1) Ligand-Binding Assays. Determination of the Affinity of Test Compounds for α1- and α2-GABAA Receptors.
(§2) Male Sprague-Dawley rats weighing 200-250 g at the time of experiment were used. After decapitation of the animal, the cerebellum (tissue that mostly contains α1-GABAA receptor) and spinal cord (tissue that mostly contains α2-GABAA receptor) were removed. The membranes were prepared according to the method by J. Lameh et al. (Prog. Neuro-Psychopharmacol. Biol. Psychiatry, 24, 979-991, 2000). Once the tissues weighed, they were suspended in 50 mM Tris HCl buffer, pH 7.7, (1:40 v/v), homogenized and then centrifuged at 20000 g for 10 min at 7° C. The resulting pellet was resuspended under the same conditions and centrifuged again. The final pellet obtained was resuspended on a minimum volume and kept at −80° C. overnight. On the next day, the process was repeated until the final pellet was resuspended at a ratio of 1:10 (v/v).
(§3) The affinity of the compounds was determined by competitive tests using radiolabeled flumazenil as ligand. The methods described by S. Arbilla et al. (Eur. J. Pharmacol., 130, 257-263, 1986); and Y. Wu et al. (Eur. J. Pharmacol., 278, 125-132, 1995) were used. The membranes containing the study receptors, flumazenil (radiolabeling at a final concentration of 1 nM) and ascending concentrations of test compounds (in a total volume of 500 μl in […] [ph 7.4] Tris HCl buffer) were incubated. Simultaneously, the membranes were only incubated with the radiolabeled flumazenil (total binding, 100%) and in the presence of an elevated concentration of unradiolabeled flumazenil (non-specific binding, % estimate of radiolabeled ligand). The reactions started on adding the radiolabeled ligand followed by incubation for 60 minutes at 0° C. At the end of the incubation period, the tubes were filtered using a Brandel Mod. M-48R harvester and then washed three times with cold test buffer. The harvester was fitted with a GF/B filter that retained the membranes containing the receptors and the radiolabeled ligand which had been bound to the receptors. Then the filters were removed and left till dry. Once dried, the filters were cut, placed in vials with scintillation liquid and left under stirring overnight. The next day the filters were counted using a Packard Mod. Tricarb scintillation counter.
(§4) T: total binding, maximum amount bound to the radiolabeled ligand. N: Non-specific binding, amount of radiolabeled ligand bound in a non-specific way irrespective of the receptor used.
(§5) Every concentrations of compound were tested in duplicate and their mean values were used to determine the experimental values of % specific binding versus the concentration of compound. […] Inhibition constants (Ki) were calculated from the IC50 values according to Cheng-Prusoff's formula (Y. Cheng y W. H. Prusoff, Biochem. Pharmacol., 22(23), 3099-3108, 1973).

Another data set has as its target α2-GABAA receptor (Rattus norvegicus, UniProt P18508+P23576). Description: Ligand-binding assay, radiolabeled flumazenil competition, spinal cord membranes. The conditions noted are these: for inhibition at 10 µM: compound at 10^−5M; for inhibition at 0.1 µM: compound at 10^−7M. The protocol: as §1, §2, §3, §4, §5
Where [1] appears, read: read-out: Affinity for α1-GABAA receptor, Ki.

This is an account of results in patent US20070043064A1, “7-Substituted 3-nitro-pyrazo[1,5-a] pyrimidines” (FERRER INTERNACIONAL S.A., priority 2003, published 2007).

Where two headings read alike, the source gives them in different places.

As to `CC(C)S(=O)(=O)N(C)c1cccc(-c2ccnc3c([N+](=O)[O-])cnn23)c1` [Example 35, N-[3-(3-nitro-pyrazolo[1,5-a]pyrimidin-7-yl)-phenyl]-N-methyl-propane-2-sulfonamide], the “% Inhibition Motor Activity” value in the data set with male CD1 mice was 91.21%. Besides, on α1-GABAA receptor, the Ki is 41.2 nM. Besides, at α2-GABAA receptor, the inhibition at 10 µM came to 91.5% and the inhibition at 0.1 µM amounted to 18.9%.

`CCCCN(c1cccc(-c2ccnc3c([N+](=O)[O-])cnn23)c1)S(=O)(=O)c1ccc(OC)cc1` had a melting point of 189 to 190 °C.

In turn, `O=[N+]([O-])c1cnn2c(-c3cccs3)ccnc12` had a melting point of 235 to 237 °C.

Turning to `COc1ccc(S(=O)(=O)N(C)c2cccc(-c3ccnc4c([N+](=O)[O-])cnn34)c2)cc1`, the melting point was 205 to 206 °C.

As for `C#CCN(c1cccc(-c2ccnc3c([N+](=O)[O-])cnn23)c1)S(=O)(=O)C(C)C` [Example 31, N-[3-(3-nitro-pyrazolo[1,5-a]pyrimidin-7-yl)-phenyl]-N-(n-prop-2-inyl)-propane-2-sulfonamide], the “% Inhibition Motor Activity” value in the data set on male CD1 mice is 94.31%. The molecule further showed a Ki at α1-GABAA receptor of 48.5 nM. Also, on α2-GABAA receptor, the inhibition at 10 µM amounted to 81.3% and 0.1 µM produced 4.2% inhibition.

Consider `CCN(C(C)=O)c1cccc(-c2ccnc3c(C#N)cnn23)c1` [Zaleplon, zaleplon, reference compound], for which the “% Inhibition Motor Activity” value in the data set with male CD1 mice is 47.17%. Also, the inhibition at 10 µM on α2-GABAA receptor was determined as 78.4%.

On to `C#CCN(C(C)=O)c1cccc(-c2ccnc3c([N+](=O)[O-])cnn23)c1` [Example 5, N-[3-(3-nitro-pyrazolo[1,5-a]pyrimidin-7-yl)-phenyl]-N-(2-propynyl)-acetamide], for which the “% Inhibition Motor Activity” value in the data set on male CD1 mice is reported as 79.06%. This molecule registered an inhibitory constant (Ki) on α1-GABAA receptor of 38.6 nM.

On to `O=[N+]([O-])c1cnn2c(-c3ccccc3C(F)(F)F)ccnc12`, for which the melting point lay within 195 to 197 °C.

Consider `CCN(c1cccc(-c2ccnc3c([N+](=O)[O-])cnn23)c1)S(=O)(=O)c1ccc(OC)cc1`, for which the melting point was 209 to 211 °C.

As for `O=[N+]([O-])c1cnn2c(-c3ccco3)ccnc12`, the melting point fell in the range of 235 to 237 °C.

Turning to `O=[N+]([O-])c1cnn2c(-c3ccncc3)ccnc12`, the melting point is 241 to 244 °C.

In the case of `CCCN(c1cccc(-c2ccnc3c([N+](=O)[O-])cnn23)c1)S(=O)(=O)c1ccc(OC)cc1`, the melting point fell in the range of 184 to 185 °C.

The molecule `O=[N+]([O-])c1cnn2c(-c3cccc(C(F)(F)F)c3)ccnc12` [Example 8, 3-nitro-7-(3-trifluoromethyl-phenyl)-pyrazolo[1,5-a]pyrimidine] yielded a melting point of 159 to 161 °C. For the same molecule, the “% Inhibition Motor Activity” value in the data set on male CD1 mice is on record as 69.08%. Also, the inhibition constant (Ki) at α1-GABAA receptor (setting [1]) worked out at 623 nM.

As for `CCN(C(C)=O)c1cccc(-c2ccnc3c([N+](=O)[O-])cnn23)c1` [Example 1, N-ethyl-N-[3-(3-nitro-pyrazolo[1,5-a]pyrimidin-7-yl)-phenyl]-acetamide], the melting point lay in the range of 176 to 178 °C. Moreover, the “% Inhibition Motor Activity” value with male CD1 mice is listed as 77.25%. The same molecule gave a Ki on α1-GABAA receptor of 88.6 nM.

As to `CCN(c1cccc(-c2ccnc3c([N+](=O)[O-])cnn23)c1)S(C)(=O)=O` [Example 15, N-ethyl-N-[3-(3-nitro-pyrazolo[1,5-a]pyrimidin-7-yl)-phenyl]-methanesulfonamide], on α1-GABAA receptor, the Ki was determined as 11.1 nM.

`O=C1CCCN1c1cccc(-c2ccnc3c([N+](=O)[O-])cnn23)c1` displayed a melting point of 226 to 228 °C.

As to `O=[N+]([O-])c1cnn2c(-c3cccc(N4CCCS4(=O)=O)c3)ccnc12` [Example 34, 7-(3-(2-isothiazolidinyl-1,1-dioxide)-phenyl)-3-nitro-pyrazolo[1,5-a]pyrimidine], the “% Inhibition Motor Activity” value with male CD1 mice was 64.23%. Besides, the inhibition constant Ki on α1-GABAA receptor (setting [1]) was 165 nM. In addition, at α2-GABAA receptor, 10 µM produced 86.9% inhibition and testing at 0.1 µM gave an inhibition of 4.3%.

Consider `CCS(=O)(=O)N(C)c1cccc(-c2ccnc3c([N+](=O)[O-])cnn23)c1` [Example 32, N-[3-(3-nitro-pyrazolo[1,5-a]pyrimidin-7-yl)-phenyl]-N-methyl-ethanesulfonamide], for which the “% Inhibition Motor Activity” value in the data set with male CD1 mice is 91.57%. On α1-GABAA receptor, this molecule showed an inhibitory constant (Ki) of 31 nM. At α2-GABAA receptor, this molecule displayed an inhibition at 10 µM of 89% and an inhibition at 0.1 µM of 21%.

Consider `CC(=O)N(C)c1cccc(-c2ccnc3c([N+](=O)[O-])cnn23)c1` [Example 2, N-methyl-N-[3-(3-nitro-pyrazolo[1,5-a]pyrimidin-7-yl)-phenyl]-acetamide], for which the “% Inhibition Motor Activity” value in the data set on male CD1 mice is on record as 77.25%. Besides, at α1-GABAA receptor, the Ki was 96.8 nM.

In turn, `CCCCN(c1cccc(-c2ccnc3c([N+](=O)[O-])cnn23)c1)S(=O)(=O)c1ccccc1` yielded a melting point of 159 to 160 °C.

`CCCN(C(C)=O)c1cccc(-c2ccnc3c([N+](=O)[O-])cnn23)c1` [Example 3, N-[3-(3-nitro-pyrazolo[1,5-a]pyrimidin-7-yl)-phenyl]-N-(n-propyl)-acetamide]: the “% Inhibition Motor Activity” value with male CD1 mice was 61.68%. For the same molecule, the Ki on α1-GABAA receptor (setting [1]) was 110 nM.

In the case of `CCCCN(c1cccc(-c2ccnc3c([N+](=O)[O-])cnn23)c1)S(C)(=O)=O`, the melting point lay in the range of 153 to 155 °C.

`CCCN(c1cccc(-c2ccnc3c([N+](=O)[O-])cnn23)c1)S(C)(=O)=O` [Example 25, N-[3-(3-nitro-pyrazolo[1,5-a]pyrimidin-7-yl)-phenyl]-N-(n-propyl)-methanesulfonamide] registered a melting point of 165 to 167 °C. In addition, the “% Inhibition Motor Activity” value with male CD1 mice was 61.06%. At α1-GABAA receptor, this molecule registered a Ki of 102 nM.

Regarding `O=[N+]([O-])c1cnn2c(-c3cccnc3)ccnc12`, the melting point lay within 302 to 303 °C.

On to `O=[N+]([O-])c1cnn2c(-c3ccc(C(F)(F)F)cc3)ccnc12`, for which the melting point was in the range of 191 to 193 °C.

In the case of `CCCN(c1cccc(-c2ccnc3c([N+](=O)[O-])cnn23)c1)S(=O)(=O)c1ccccc1`, the melting point lay in the range of 154 to 156 °C.

For `C#CCN(c1cccc(-c2ccnc3c([N+](=O)[O-])cnn23)c1)S(C)(=O)=O` [Example 28, N-[3-(3-nitro-pyrazolo[1,5-a]pyrimidin-7-yl)-phenyl]-N-(prop-2-inyl)-methanesulfonamide], the “% Inhibition Motor Activity” value in the data set with male CD1 mice is 94.19%. On α1-GABAA receptor, the affinity, expressed as Ki, was 11.7 nM. Further, on α2-GABAA receptor, the inhibition at 10 µM amounted to 96.4% and the inhibition at 0.1 µM came to 29%.

For the molecule `CN(c1cccc(-c2ccnc3c([N+](=O)[O-])cnn23)c1)S(C)(=O)=O` [Example 18, N-methyl-N-[3-(3-nitro-pyrazolo[1,5-a]pyrimidin-7-yl)-phenyl]-methanesulfonamide], the “% Inhibition Motor Activity” value in the data set with male CD1 mice is recorded as 68.55%. The Ki on α1-GABAA receptor was found to be 28.3 nM.

The Ki is the equilibrium dissociation constant of an inhibitor or competing ligand from its target. The inhibition is the percentage by which the read-out fell short of the control. Higher therefore signals strong suppression. The melting point is the temperature, or range, at which the solid turns liquid.
